In US20090270395A1, “EP4 Receptor Agonist, Compositions and Methods Thereof” (priority 2005, published 2009):

Assays:
[1] = ocular tolerability in rabbits, topical ophthalmic solution; type: in vivo, rabbits (New Zealand white rabbits)
Description: Drug concentrations are expressed in terms of the active ingredient (base). The compounds of this invention are dissolved in a suitable ophthalmic solution (e.g., 0.5% Polysorbate-80, 0.02% benzalkonium chloride, 0.1% EDTA, 4.5% mannitol in 5 mM citrate) at 22, 2.2 and 0.22 μM for rabbit study and 111, 33, 11, and 1.1 μM for monkey studies. Drug or vehicle aliquots (25 ul) are administered topically unilaterally or bilaterally. In unilateral applications, the contralateral eyes receive an equal volume of vehicle. Proparacaine (0.5%) is applied to the cornea prior to tonometry to minimize discomfort. Intraocular pressure (IOP) is recorded using a pneumatic tonometer (Alcon Applanation Pneumatonograph) or equivalent.

[2] = ocular tolerability in cynomolgus monkeys; type: in vivo; conditions: compared to compounds disclosed in WO 2004/085430 (Example 2)
[3] = system: ROS 17/2.8 rat osteosarcoma cells; experiment: effect on intracellular cAMP in ROS 17/2.8 cells; type: cell-based
Description: (§1) RCT-1 and RCT-3 are clonal cell lines immortalized by SV-40 large T antigen from cells released from fetal rat calvair by a combination collagenase/hyaluronidase digestion. RCT-1 cells, derived from cells released during the first 10 minutes of digestion (fraction I), are cultured in RPMI 1640 medium (BRL) with 10% fetal bovine serum and 0.4 mg/ml G418 (BRL). These cells differentiate and express osteoblastic features upon retinoic acid treatment. RCT-3 cells, immortalized from osteoblast-enriched fraction III cells, are cultured in F-12 medium (BRL) with 5% Fetal bovine serum and 0.4 mg/ml G418. TRAB-11 cells are also immortalized by SV40 large T antigen from adult rat tibia and are cultured in RPMI 1640 medium with 10% FBS and 0.4 mg/ml G418. ROS 17/2.8 rat osteosarcoma cells are cultured in F-12 containing 5% FBS. Osteoblast-enriched (fraction III) primary fetal rat calvaria cells are obtained by collagenase/hyaluronidase digestion of calvariae of 19 day-old rat fetuses. See Rodan et al., Growth stimulation of rat calvaria osteoblastic cells by acidic FGF, Endocrinology, 121, 1919-1923 (1987), which is incorporated by reference herein in its entirety. Cells are released during 30-50 minutes digestion (fraction […]) and are cultured in F-12 medium containing 5% FBS. […]

EP4 mRNA in RCT-3 cells = experiment: EP4 mRNA expression (Northern blot) in RCT-3 cells; type: cell-based, rat
Description: as §1

EP2 mRNA in RP-1 cells = experiment: EP2 mRNA expression (Northern blot) in RP-1 cells; type: cell-based, rat
Description: (§2) RP-1 periosteal cells are spontaneously immortalized from primary cultures of periosteal cells from tibae of 4-week old Sprague-Dawley rats and are cultured in DMEM (BRL, Gaithersburg, Md.) with 10% fetal bovine serum (JRH Biosciences, Lenexa, Kans.).
(§3) Total RNA is extracted from the tibial metaphysis or diaphysis and calvaria using a guanidinium isothiocyanate-phenol-chloroform method after pulverizing frozen bone samples by a tissue homogenizer. See P. Chomczynski et al., Single-step method of RNA isolation by acid guanidium thiocyanate-phenol-chloroform extraction., Analyt Biochem, 162, 156-159 (1987), which is incorporated by reference herein in its entirety. RNA samples ([…]) are separated on 0.9% agarose/formaldehyde gels and transferred onto nylon membranes (Boehringer Mannheim, Germany). Membranes are prehybridized in Hybrisol I (Oncor, Gaithersburg, Md.) and 0.5 mg/ml sonicated salmon sperm DNA (Boehringer) at 42° C. for 3 hours and are hybridized at 42° C. with rat EP2 and mouse EP4 cDNA probes labeled with [^32P]-dCTP (Amersham, Buckinghamshire, UK) by random priming using the rediprime kit (Amersham). After hybridization, membranes are washed 4 times in 2×SSC+0.1% SDS at room temperature for a total of 1 hour and once with 0.2×SSC+0.1% SDS at 55° C. for 1 hour and then exposed to Kodak XAR 2 film at −70° C. using intensifying screens. […]

[4] = system: EP4 mRNA in RP-1 periosteal cells; experiment: EP4 mRNA expression (Northern blot) in RP-1 periosteal cells; type: cell-based, rat; conditions: 10^−6 M
Description: as §2, §3

RCT-3 cells = experiment: effect on intracellular cAMP in RCT-3 cells; type: cell-based, rat
Description: as §1

EP4 mRNA in bone tissue = experiment: EP4 mRNA levels in bone tissue of rats after systemic injection (Northern blot); type: in vivo, rat; conditions: five-week-old male rats; 3-6 mg/Kg injected
Source text: For mRNA localization experiments, 5-week old Sprague-Dawley rats (Charles River) are euthanized by CO2, their tibiae and calvariae are excised, cleaned of soft tissues and frozen immediately in liquid nitrogen. […] Animals are euthanized at several time points post-injection and their tibiae and calvariae, as well as samples from lung and kidney tissues are frozen in liquid nitrogen.
as §3, with “(Amersham).” for “(Amersham). After hybridization, membranes are washed 4 times in 2×SSC+0.1% SDS at room temperature for a total of 1 hour and once with 0.2×SSC+0.1% SDS at 55° C. for 1 hour and then exposed to Kodak XAR 2 film at −70° C. using intensifying screens.”

[5] = system: EP4 expression in bone marrow cells; experiment: localization of EP4 mRNA expression in bone tissue by in situ hybridization; type: in vivo, rat; conditions: rats, single anabolic dose
Description: (§4) For mRNA localization experiments, 5-week old Sprague-Dawley rats (Charles River) are euthanized by CO2, their tibiae and calvariae are excised, cleaned of soft tissues and frozen immediately in liquid nitrogen. For EP4 regulation experiments, 6-week old rats are given a single injection of either vehicle (7% ethanol in sterile water) or an anabolic dose of PGE2 (Cayman Chemical, Ann Arbor, Mich.), 3-6 mg/kg in the same vehicle) intraperitoneally. Animals are euthanized at several time points post-injection and their tibiae and calvariae, as well as samples from lung and kidney tissues are frozen in liquid nitrogen.
Frozen tibiae are sectioned coronally at […] thickness and sections are mounted on charged slides (Probe On Plus, Fisher Scientific, Springfield, N.J.) and are kept at −70° C. until hybridization. cRNA probes are labeled with ^35S-UTPgS (ICN, Costa Mesa, Calif.) using a Riboprobe II kit (Promega Madison, Wis.). Hybridization is performed overnight at 50° C. […]
In situ hybridization is used in order to localize cells expressing EP4 in bone. In control experiment (vehicle-injected) rats, low expression of EP4 is detected in bone marrow cells. […]

EP2 mRNA in bone tissue = EP2 mRNA in bone tissue of rats after systemic injection (Northern blot); type: in vivo, rat; conditions: 3-6 mg/Kg injected
Description: as §4
Total RNA is extracted from the tibial metaphysis or diaphysis and calvaria using a guanidinium isothiocyanate-phenol-chloroform method after pulverizing frozen bone samples by a tissue homogenizer. See P. Chomczynski et al., Single-step method of RNA isolation by acid guanidium thiocyanate-phenol-chloroform extraction., Analyt Biochem, 162, 156-159 (1987), which is incorporated by reference herein in its entirety. RNA samples ([…]) are separated on 0.9% agarose/formaldehyde gels and transferred onto nylon membranes (Boehringer Mannheim, Germany). […]

TRAB-11 cells = experiment: effect on intracellular cAMP in TRAB-11 cells; type: cell-based, rat
Description: as §1

In the case of CC(C)OC(=O)c1ccc(CCN2C(=O)OCC[C@@H]2/C=C/[C@@H](O)C(F)(F)c2cccc(Br)c2)cc1 [Example 1, isopropyl 4-(2-{(4R)-4-[(1E,3R)-4-(3-bromophenyl)-4,4-difluoro-3-hydroxybut-1-en-1-yl]-2-oxo-1,3-oxazinan-3-yl}ethyl)benzoate], the ocular tolerability ([1]; rabbits, compared to compounds disclosed in WO 2004/085430 (Example 2)) is reported as “improved ocular tolerability” and the ocular tolerability [2] is reported as “improved ocular tolerability”.
In the case of CC(C)OC(=O)c1ccc(CCN2C(=O)OCC[C@@H]2CC[C@@H](O)C(F)(F)c2cccc(Br)c2)cc1 [Example 3, isopropyl 4-(2-{(4S)-4-[(3R)-4-(3-bromophenyl)-4,4-difluoro-3-hydroxybutyl]-2-oxo-1,3-oxazinan-3-yl}ethyl)benzoate], the “drug treatment related ocular adverse effects (eye closure)” value ([1]; New Zealand white rabbits, single dose, topical, unilateral, 2.2 μM (25 μL) ophthalmic solution, vehicle panel-controlled) is reported as “very slight drug treatment related ocular adverse effects (eye closure)”.
In the case of CCCCC[C@H](O)/C=C/[C@H]1[C@H](O)CC(=O)[C@@H]1C/C=C\CCCC(=O)O [PGE2], the “effect on intracellular cAMP” value [3] is reported as “no effect”, the “effect on EP4 mRNA levels” value (EP4 mRNA in RCT-3 cells) is reported as “no effect” and the “EP2 mRNA expression before or after treatment” value (EP2 mRNA in RP-1 cells) is reported as “not expressed”. For the same molecule, the “effect on EP4 mRNA levels” value [4] was “rapidly increases EP4 mRNA levels”, the “time of peak EP4 mRNA levels after treatment” value [4] was 2 h and the “effect on intracellular cAMP” value (RCT-3 cells) was “markedly induced”. For the same molecule, the “effect on EP4 mRNA levels in the tibial diaphysis” value (EP4 mRNA in bone tissue) was “rapidly increased EP4 mRNA levels”, the “time of peak EP4 mRNA levels in the tibial diaphysis after injection” value (EP4 mRNA in bone tissue) was 2 h and the “expression of EP4 in bone marrow cells” value [5] was “increased the expression of EP4 in bone marrow cells”. For the same molecule, the “induction of EP2 mRNA in bone tissue” value (EP2 mRNA in bone tissue) was “does not induce EP2 mRNA” and the “effect on intracellular cAMP” value (TRAB-11 cells) was “markedly induced”.
